23 molecules from patent US6916923B2 (Hoffmann-La Roche Inc., priority 1999, dated 2005) can be followed below.

For orientation: melting point means the temperature, or range, at which the solid turns liquid. As usually defined, the IC50 is the concentration needed to halve the response being measured.

Data set [1] addresses T1, Recombinant active human Cyclin E/CDK2 complexes (Homo sapiens, UniProt P24941).
T1 construct: made in house; host or cells: insect cells
Briefly: CDK2 FlashPlate Assay (inhibition of Rb phosphorylation). Type of data set: biochemical. Conditions: Cyclin E/CDK2, Rb substrate, 33P-ATP, 25 minutes at room temperature; read-out: Inhibition of Cdk2 - IC50 Range. Here is the method:
To determine inhibition of CDK2 activity, purified recombinant retinoblastoma (Rb) protein was coated on 96 well FlashPlates (New England Nuclear, Boston, Mass.). Rb is a natural substrate for phosphorylation by CDK2 (Herwig and Strauss Eurr. J. Biochem., Vol. 246 (1997) pp. 581-601 and references therein). Recombinant active human Cyclin E/CDK2 complexes were partially purified from extracts of insect cells. The active Cyclin E/CDK2 was added to the Rb-coated FlashPlates along with ^33P-ATP and dilutions of test compounds. Plates were incubated for 25 minutes at room temperature with shaking, then washed and counted in the Topcount scintillation counter (Packard Instrument Co., Downers Grove, Ill.). Dilutions of test compounds were tested in duplicate in each assay. The percent inhibition of Rb phosphorylation, which is a measure of the inhibition of CDK2 activity, was determined according to the following formula: [formula] where “test compound” refers to the average counts per minute of the test duplicates, “nonspecific” refers to the average counts per minute when no Cyclin E/CDK2 was added, and “total” refers to the average counts per minute when no compound was added.

Data set [2] relates to estrogen receptor negative epithelial breast carcinoma line (MDA-MB-435). Put plainly: MDA-MB-435 cell-based antiproliferative (MTT) assay. Conditions: Homo sapiens, MDA-MB-435, 120 h, 2000 cells per well, 5 days post addition of test compound, read-out: Antiproliferative Activity of MDA-MB435 (breast) Assay - IC50 Range. Here is the method: (§1) The estrogen receptor negative epithelial breast carcinoma line (MDA-MB-435) was purchased from American Type Cell Culture Collection (ATCC; Rockville, Md.) and was grown in the medium recommended by ATCC. For analysis of the effect of the test compounds on growth of these cells, the cells were plated at 2000 cells per well in a 96-well tissue culture plate, and were incubated overnight at 37° C. with 5% CO2. The next day, the test compounds were dissolved in 100% dimethyl sulfoxide (DMSO) to yield a 10 mM stock solution. Each compound was diluted with sterile medium to 1 mM in a sufficient quantity to yield a final concentration of 120 μM. The compounds were then serially diluted in medium with 1.2% DMSO. One-fourth final volume of the diluted compounds was transferred to 96 well plates. Test compounds were assayed in duplicate. DMSO was added to a row of “control cells” such that the final concentration of DMSO in each well was 0.3%. Wells to which no cells were added served as the “blank.” Wells to which no inhibitor was added served as “no inhibitor control”. The plates were returned to the incubator, and 5 days post addition of test compound, were analyzed as described below.
(§2) 3-(4,5-Dimethylthiazole-2-yl)-2,5-diphenyl-2H-tetrazolium bromide (thiazolyl blue; MTT) was added to each well to yield a final concentration of 1 mg/mL. The plates were then incubated at 37° C. for 3 hours. The plates were centrifuged at 1000 rpm for 5 minutes prior to aspiration of the MTT-containing medium. The MTT-containing medium was then removed and 100 μL 100% ethanol was added to each well to dissolve the resulting formazan metabolite. To ensure complete dissolution, plates were shaken for 15 minutes at room temperature. Absorbencies were read in a microtiter plate reader (Molecular Dynamics) at a wavelength of 570 nm with a 650 nm reference. Percent inhibition was calculated by subtracting the absorbance of the blank (no cell) wells from all wells, then subtracting the division of the average absorbance of each test duplicate by the average of the controls from 1.00. Inhibitory concentrations (IC50) were determined from the linear regression of a plot of the logarithm of the concentration versus the percent inhibition.

In data set [3] the test system is colon adenocarcinoma line SW480. Put plainly: SW480 cell-based antiproliferative (MTT) assay. The following applies: Homo sapiens, SW480, 144 h, 1000 cells per well, 6 days post addition of test compound, read-out: Antiproliferative Activity SW480 (colon) Assay - IC50 Range. On the procedure: as §1, §2
(§3) The colon adenocarcinoma line SW480 and the colon carcinoma line HCT-116 also were obtained from the ATCC and were tested according to the same protocol provided above for MDA-MB435 cell based assay with the following modifications. Cell line SW480 was plated at 1000 cells per well and analyzed at 6 days post addition of the test compound. Cell line HCT-116 was plated at 1000 cells per well and analyzed at 4 days post addition of test compound.

For data set [4], the system named is colon carcinoma line HCT-116. Briefly: HCT-116 cell-based antiproliferative (MTT) assay. Conditions: Homo sapiens, HCT-116, 96 h, 1000 cells per well, 4 days post addition of test compound, read-out: Antiproliferative Activity HCT 116 (colon) Assay - IC50 Range. Here is the method:
as §1, §2, §3

`Clc1ccccc1-c1nccnc2c1cc(Cl)c1nncc12` [Compound A4, 5-(2-chlorophenyl)-7-chloro-pyrazolo[3,4][1,4]benzodiazepine] showed a melting point greater than 300 °C.

For the molecule `O=[N+]([O-])c1ccc2c(c1)C(c1ccccc1Cl)=Nc1c[nH]nc1N2` [Compound A5, 5-(2-chlorophenyl)-7-nitro-pyrazolo[3,4][1,4]benzodiazepine], the IC50 was 10 to 990 nM in data set [1], 10 to 30 µM in data set [2], 1.1 to 9.99 µM in data set [3] and 10 to 30 µM in data set [4].

For the molecule `Fc1ccccc1C1=Nc2c[nH]nc2Nc2ccccc21` [Compound A10, 5-(2-fluorophenyl)-pyrazolo[3,4][1,4]benzodiazepine], the IC50 in data set [1] was in the range of 1000 to 9990 nM; in data set [3], 10 to 30 µM; in data set [4], 10 to 30 µM.

As to `O=[N+]([O-])c1ccc2c(c1)C(c1ccccc1F)=Nc1c[nH]nc1N2` [Compound A13, 5-(2-fluorophenyl)-7-nitro-pyrazolo[3,4][1,4]benzodiazepine], the concentration for half-maximal inhibition (IC50) was in the range of 10 to 990 nM in data set [1], 10 to 30 µM in data set [2], 1.1 to 9.99 µM in data set [3] and 10 to 30 µM in data set [4].

With `Clc1ccccc1C1=Nc2c[nH]nc2Nc2ccccc21` [Compound A21, 5-(2-chlorophenyl)-pyrazolo[3,4][1,4]benzodiazepine], the results for the IC50 in data set [1], in data set [3] and in data set [4] were 10 to 990 nM, 10 to 30 µM and 10 to 30 µM, respectively.

`O=[N+]([O-])c1ccc2c(c1)C(c1ccccc1Cl)=Nc1c(n[nH]c1-c1ccc[nH]1)N2` [Compound B1, 3-(2-pyrrolyl)-5-(2-chlorophenyl)-7-nitro-pyrazolo[3,4][1,4]benzodiazepine]: the IC50 in data set [1] lay within 10 to 990 nM; in data set [3], 1.1 to 9.99 µM; in data set [4] it was 1.1 to 9.99 µM.

With `Cc1[nH]nc2c1N=C(c1ccccc1Cl)c1cc([N+](=O)[O-])ccc1N2` [Compound B3, 3-methyl-5-(2-chlorophenyl)-7-nitro-pyrazolo[3,4][1,4]benzodiazepine], the IC50 in data set [1] is 10 to 990 nM; in data set [2], 0.01 to 1 µM; in data set [3] it was 0.01 to 1 µM; in data set [4], 0.01 to 1 µM.

Turning to `CCc1[nH]nc2c1N=C(c1ccccc1Cl)c1cc([N+](=O)[O-])ccc1N2` [Compound B4, 3-ethyl-5-(2-chlorophenyl)-7-nitro-pyrazolo[3,4][1,4]benzodiazepine], the IC50 in data set [1] is 10 to 990 nM; in data set [2] it was 0.01 to 1 µM; in data set [3], 0.01 to 1 µM; in data set [4] it was 0.01 to 1 µM.

Regarding `O=[N+]([O-])c1ccc2c(c1)C(c1ccccc1Cl)=Nc1c(n[nH]c1CCc1ccccc1)N2` [Compound B5, 3-(2-phenylethyl)-5-(2-chlorophenyl)-7-nitro-pyrazolo[3,4][1,4]benzodiazepine], the IC50 in data set [1] was in the range of 1000 to 9990 nM; in data set [2] it was 10 to 30 µM; in data set [3] it was 10 to 30 µM; in data set [4] it was 10 to 30 µM.

In the case of `CC(C)c1[nH]nc2c1N=C(c1ccccc1Cl)c1cc([N+](=O)[O-])ccc1N2` [Compound B6], the half-maximal inhibitory concentration (IC50) in data set [1] was in the range of 10 to 990 nM; in data set [2], 0.01 to 1 µM; in data set [3] it was 0.01 to 1 µM; in data set [4], 1.1 to 9.99 µM.

On to `Cc1[nH]nc2c1N=C(c1ccccc1F)c1cc(C#N)ccc1N2` [Compound B7, 3-methyl-5-(2-fluorophenyl)-pyrazolo[3,4][1,4]benzodiazepine-7-carbonitrile], for which the half-inhibitory concentration (IC50) in data set [1] was in the range of 10 to 990 nM; in data set [2] it was 0.01 to 1 µM; in data set [3] it was 0.01 to 1 µM; in data set [4] it was 1.1 to 9.99 µM.

Consider `O=[N+]([O-])c1ccc2c(c1)C(c1ccccc1Cl)=Nc1c(n[nH]c1Cc1ccccc1)N2` [Compound B8, 3-(phenylmethyl)-5-(2-chlorophenyl)-7-nitro-pyrazolo[3,4][1,4]benzodiazepine], for which the IC50 in data set [1] lay in the range of 1000 to 9990 nM; in data set [2], 10 to 30 µM; in data set [3] it was 10 to 30 µM; in data set [4], 10 to 30 µM.

On to `CCOC(=O)c1ccc2c(c1)C(c1ccccc1F)=Nc1c(n[nH]c1C)N2` [Compound B9, 3-methyl-5-(2-fluorophenyl)-7-carboethoxy-pyrazolo[3,4][1,4]benzodiazepine], for which the IC50 in data set [1] lay within 10 to 990 nM; in data set [2], 1.1 to 9.99 µM; in data set [3], 1.1 to 9.99 µM; in data set [4], 1.1 to 9.99 µM.

In the case of `O=[N+]([O-])c1ccc2c(c1)C(c1ccccc1Cl)=Nc1c(n[nH]c1-c1ccccc1)N2` [Compound B23, 3-phenyl-5-(2-chlorophenyl)-7-nitro-pyrazolo[3,4][1,4]benzodiazepine], the IC50 in data set [1] lay in the range of 10 to 990 nM; in data set [3] it was 10 to 30 µM; in data set [4], 10 to 30 µM.

In the case of `CCCc1[nH]nc2c1N=C(c1ccccc1Cl)c1cc([N+](=O)[O-])ccc1N2` [Compound B24, 3-propyl-5-(2-chlorophenyl)-7-nitro-pyrazolo[3,4][1,4]benzodiazepine], the 50% inhibitory concentration (IC50) in data set [1] was in the range of 10 to 990 nM; in data set [2], 10 to 30 µM; in data set [3], 10 to 30 µM; in data set [4], 10 to 30 µM.

In the case of `O=[N+]([O-])c1ccc2c(c1)C(c1ccccc1Cl)=Nc1c(n[nH]c1C1CC1)N2` [Compound B25, 3-cyclopropyl-5-(2-chlorophenyl)-7-nitro-pyrazolo[3,4][1,4]benzodiazepine], the IC50 was in the range of 10 to 990 nM in data set [1], 0.01 to 1 µM in data set [2], 1.1 to 9.99 µM in data set [3] and 1.1 to 9.99 µM in data set [4].

For the molecule `Cc1cnc2c(cc(N)c3nncc32)c(-c2ccccc2Cl)n1` [Compound C4, 3-methyl-5-(2-chlorophenyl)-7-amino-pyrazolo[3,4][1,4]benzodiazepine], the melting point is 260 to 263 °C.

With `Nc1ccc2c(c1)C(c1ccccc1Cl)=Nc1c[nH]nc1N2` [Compound C5, 5-(2-chlorophenyl)-7-amino-pyrazolo[3,4][1,4]benzodiazepine], the IC50 in data set [1] is 1000 to 9990 nM; in data set [2] it was 10 to 30 µM; in data set [3] it was 10 to 30 µM; in data set [4] it was 10 to 30 µM.

`NNC(=O)c1[nH]nc2c1N=C(c1ccccc1Cl)c1cc([N+](=O)[O-])ccc1N2` [Compound C12, N-amino-5-(2-chlorophenyl)-7-nitro-pyrazolo[3,4][1,4]benzodiazepine-3-carboxamide]: the half-inhibitory concentration (IC50) in data set [1] fell in the range of 10 to 990 nM; in data set [3], 10 to 30 µM; in data set [4], 1.1 to 9.99 µM.

Consider `O=[N+]([O-])c1ccc2c(c1)C(c1ccccc1Cl)=Nc1c(n[nH]c1-c1cccs1)N2` [Compound D6], for which the IC50 was 10 to 990 nM in data set [1], 10 to 30 µM in data set [3] and 10 to 30 µM in data set [4].

Take `O=[N+]([O-])c1ccc2c(c1)C(c1ccccc1Cl)=Nc1c(n[nH]c1-c1ccco1)N2` [Compound D7]: the IC50 in data set [1] lay in the range of 10 to 990 nM; in data set [3], 10 to 30 µM; in data set [4], 10 to 30 µM.

With `Cc1ccccc1-c1[nH]nc2c1N=C(c1ccccc1Cl)c1cc([N+](=O)[O-])ccc1N2` [Compound D37], the results for the IC50 in data set [1], in data set [3] and in data set [4] were 1000 to 9990 nM, 10 to 30 µM and 10 to 30 µM, respectively.

In the case of `NC(=O)c1ccc2c(c1)C(c1ccccc1F)=Nc1c[nH]nc1N2` [Compound D50], the results for the IC50 in data set [1], in data set [3] and in data set [4] were 10 to 990 nM, 1.1 to 9.99 µM and 1.1 to 9.99 µM, respectively.
